The values that follow come from patent publication US8741896B2, “Pyrazolopyrimidine derivatives” (Merck Patent GmbH, priority 2009, dated 2014).

As a reminder, the IC50 is the concentration needed to halve the response being measured.

A value given as a limit tells only on which side of the number the result lay.

For test [1], the target named is PI3Kδ (Homo sapiens, UniProt O00329). As to the kind of experiment: PI3 kinase inhibition bioassay (PI3Kδ). It counts as biochemical.
Test [2] deals with PI3Kγ (Homo sapiens, UniProt P48736). Briefly: PI3 kinase inhibition bioassay (PI3Kγ). It counts as biochemical.
Test [3] deals with PI3Kβ (Homo sapiens, UniProt P42338). As to the kind of experiment: PI3 kinase inhibition bioassay (PI3Kβ). The test is classed as biochemical.
The target of test [4] is PI3Kα (Homo sapiens, UniProt P42336). Briefly: PI3 kinase inhibition bioassay (PI3Kα). The test is classed as biochemical.
Test [5] has as its target CK2 protein kinase (Homo sapiens, UniProt P68400). To be noted: cited from earlier work.

Chain of PI3Kα (P42336 whole entry, species assumed): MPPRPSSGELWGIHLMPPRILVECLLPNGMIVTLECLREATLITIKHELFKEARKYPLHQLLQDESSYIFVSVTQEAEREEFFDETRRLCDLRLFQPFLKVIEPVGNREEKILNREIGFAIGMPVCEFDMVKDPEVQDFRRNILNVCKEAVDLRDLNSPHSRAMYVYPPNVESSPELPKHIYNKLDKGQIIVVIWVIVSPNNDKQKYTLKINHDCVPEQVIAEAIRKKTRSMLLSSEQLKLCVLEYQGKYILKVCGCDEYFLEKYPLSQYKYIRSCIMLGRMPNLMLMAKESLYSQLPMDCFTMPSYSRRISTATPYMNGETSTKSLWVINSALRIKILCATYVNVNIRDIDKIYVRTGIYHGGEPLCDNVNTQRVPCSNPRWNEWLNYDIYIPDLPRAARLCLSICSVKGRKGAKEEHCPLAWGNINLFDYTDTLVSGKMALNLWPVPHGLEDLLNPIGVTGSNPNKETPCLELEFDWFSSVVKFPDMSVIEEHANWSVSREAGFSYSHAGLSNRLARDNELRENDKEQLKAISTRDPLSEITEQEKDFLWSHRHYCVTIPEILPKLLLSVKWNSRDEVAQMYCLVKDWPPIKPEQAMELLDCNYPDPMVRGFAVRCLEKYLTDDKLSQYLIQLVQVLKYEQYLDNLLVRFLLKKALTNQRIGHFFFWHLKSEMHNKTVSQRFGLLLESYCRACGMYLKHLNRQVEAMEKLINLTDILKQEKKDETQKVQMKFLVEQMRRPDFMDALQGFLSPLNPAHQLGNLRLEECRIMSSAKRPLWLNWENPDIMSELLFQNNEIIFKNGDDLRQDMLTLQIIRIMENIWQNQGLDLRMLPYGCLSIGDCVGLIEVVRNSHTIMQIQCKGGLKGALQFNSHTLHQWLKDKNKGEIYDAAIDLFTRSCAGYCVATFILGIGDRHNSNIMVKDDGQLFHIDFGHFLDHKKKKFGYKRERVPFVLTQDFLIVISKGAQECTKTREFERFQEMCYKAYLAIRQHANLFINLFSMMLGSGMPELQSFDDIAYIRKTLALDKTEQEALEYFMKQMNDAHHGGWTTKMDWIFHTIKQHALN
Chain of PI3Kα (P27986 whole entry partner, species assumed): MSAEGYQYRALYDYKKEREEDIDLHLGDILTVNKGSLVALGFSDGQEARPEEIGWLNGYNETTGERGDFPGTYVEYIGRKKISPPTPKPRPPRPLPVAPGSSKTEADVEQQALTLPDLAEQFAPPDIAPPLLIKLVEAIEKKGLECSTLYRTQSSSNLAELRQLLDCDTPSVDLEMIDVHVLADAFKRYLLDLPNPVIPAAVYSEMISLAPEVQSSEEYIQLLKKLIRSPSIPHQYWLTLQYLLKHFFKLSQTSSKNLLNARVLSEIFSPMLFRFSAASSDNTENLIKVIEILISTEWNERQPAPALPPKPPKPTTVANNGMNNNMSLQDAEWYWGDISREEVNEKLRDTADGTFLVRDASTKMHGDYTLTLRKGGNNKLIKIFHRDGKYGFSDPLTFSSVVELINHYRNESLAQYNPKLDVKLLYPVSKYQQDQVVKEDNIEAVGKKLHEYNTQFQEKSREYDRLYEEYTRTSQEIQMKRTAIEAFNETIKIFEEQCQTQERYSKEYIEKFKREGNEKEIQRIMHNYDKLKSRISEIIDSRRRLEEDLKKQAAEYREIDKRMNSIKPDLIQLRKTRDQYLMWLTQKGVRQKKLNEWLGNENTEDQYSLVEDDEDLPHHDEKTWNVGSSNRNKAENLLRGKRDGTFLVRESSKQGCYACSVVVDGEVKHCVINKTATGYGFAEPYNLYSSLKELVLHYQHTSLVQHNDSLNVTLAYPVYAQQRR
Chain of PI3Kδ (O00329 whole entry, species assumed): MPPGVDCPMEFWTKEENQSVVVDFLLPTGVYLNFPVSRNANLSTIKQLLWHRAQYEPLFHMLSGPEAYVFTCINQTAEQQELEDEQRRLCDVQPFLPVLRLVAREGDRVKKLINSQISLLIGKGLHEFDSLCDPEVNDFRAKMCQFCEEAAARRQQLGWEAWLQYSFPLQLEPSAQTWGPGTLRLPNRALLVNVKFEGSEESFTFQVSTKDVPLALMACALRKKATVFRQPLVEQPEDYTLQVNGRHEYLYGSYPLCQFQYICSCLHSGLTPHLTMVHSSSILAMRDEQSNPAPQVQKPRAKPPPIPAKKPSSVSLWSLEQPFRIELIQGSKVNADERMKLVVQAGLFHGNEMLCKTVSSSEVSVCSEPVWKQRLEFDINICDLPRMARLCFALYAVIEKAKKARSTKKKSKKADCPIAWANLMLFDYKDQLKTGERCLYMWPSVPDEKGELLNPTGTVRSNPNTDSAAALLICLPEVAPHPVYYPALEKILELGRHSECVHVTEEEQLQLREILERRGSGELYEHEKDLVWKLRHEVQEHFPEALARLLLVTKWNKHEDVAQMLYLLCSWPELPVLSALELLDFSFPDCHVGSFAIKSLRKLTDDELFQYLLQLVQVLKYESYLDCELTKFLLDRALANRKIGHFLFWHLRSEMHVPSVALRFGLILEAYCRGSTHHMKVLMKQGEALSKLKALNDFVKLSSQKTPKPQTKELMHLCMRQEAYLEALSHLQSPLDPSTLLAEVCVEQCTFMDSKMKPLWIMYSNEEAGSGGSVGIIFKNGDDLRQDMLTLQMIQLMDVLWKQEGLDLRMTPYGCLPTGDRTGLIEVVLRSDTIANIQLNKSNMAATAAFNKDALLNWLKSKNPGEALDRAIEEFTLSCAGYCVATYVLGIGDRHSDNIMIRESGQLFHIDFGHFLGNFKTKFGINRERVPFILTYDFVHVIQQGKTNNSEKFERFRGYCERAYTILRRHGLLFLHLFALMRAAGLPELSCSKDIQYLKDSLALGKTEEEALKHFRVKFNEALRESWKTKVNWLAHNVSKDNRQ
Chain of PI3Kδ (P27986 whole entry partner, species assumed): as the sequence (P27986 whole entry partner, species assumed) above
Chain of PI3Kγ (P48736 whole entry, species assumed): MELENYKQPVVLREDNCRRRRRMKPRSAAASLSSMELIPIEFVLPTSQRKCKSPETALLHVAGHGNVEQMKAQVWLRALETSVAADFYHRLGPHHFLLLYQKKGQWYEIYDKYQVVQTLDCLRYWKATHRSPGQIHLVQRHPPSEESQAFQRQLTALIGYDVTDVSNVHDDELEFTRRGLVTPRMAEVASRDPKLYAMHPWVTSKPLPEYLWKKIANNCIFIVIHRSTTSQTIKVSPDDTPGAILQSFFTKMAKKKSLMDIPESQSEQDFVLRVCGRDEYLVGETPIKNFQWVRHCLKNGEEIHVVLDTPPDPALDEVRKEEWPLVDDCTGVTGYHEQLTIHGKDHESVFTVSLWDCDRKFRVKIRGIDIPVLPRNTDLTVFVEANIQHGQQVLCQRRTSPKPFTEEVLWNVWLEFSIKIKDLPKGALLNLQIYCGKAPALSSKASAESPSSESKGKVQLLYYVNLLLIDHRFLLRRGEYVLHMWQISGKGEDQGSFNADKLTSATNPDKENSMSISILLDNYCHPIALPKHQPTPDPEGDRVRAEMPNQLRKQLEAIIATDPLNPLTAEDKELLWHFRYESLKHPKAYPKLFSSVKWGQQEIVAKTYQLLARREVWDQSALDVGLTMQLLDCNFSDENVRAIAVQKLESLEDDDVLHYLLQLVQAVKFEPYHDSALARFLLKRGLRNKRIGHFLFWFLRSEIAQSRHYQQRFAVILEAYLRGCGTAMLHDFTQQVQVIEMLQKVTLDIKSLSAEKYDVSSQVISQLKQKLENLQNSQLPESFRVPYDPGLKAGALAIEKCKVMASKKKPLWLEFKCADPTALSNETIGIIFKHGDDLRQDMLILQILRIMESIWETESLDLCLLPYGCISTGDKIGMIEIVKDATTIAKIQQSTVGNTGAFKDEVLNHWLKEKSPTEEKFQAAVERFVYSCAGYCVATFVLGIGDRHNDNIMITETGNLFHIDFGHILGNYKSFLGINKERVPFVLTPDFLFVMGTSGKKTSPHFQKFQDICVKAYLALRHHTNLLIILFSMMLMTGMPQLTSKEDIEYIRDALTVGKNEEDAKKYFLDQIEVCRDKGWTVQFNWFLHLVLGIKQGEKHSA
Chain of PI3Kβ (P42338 whole entry, species assumed): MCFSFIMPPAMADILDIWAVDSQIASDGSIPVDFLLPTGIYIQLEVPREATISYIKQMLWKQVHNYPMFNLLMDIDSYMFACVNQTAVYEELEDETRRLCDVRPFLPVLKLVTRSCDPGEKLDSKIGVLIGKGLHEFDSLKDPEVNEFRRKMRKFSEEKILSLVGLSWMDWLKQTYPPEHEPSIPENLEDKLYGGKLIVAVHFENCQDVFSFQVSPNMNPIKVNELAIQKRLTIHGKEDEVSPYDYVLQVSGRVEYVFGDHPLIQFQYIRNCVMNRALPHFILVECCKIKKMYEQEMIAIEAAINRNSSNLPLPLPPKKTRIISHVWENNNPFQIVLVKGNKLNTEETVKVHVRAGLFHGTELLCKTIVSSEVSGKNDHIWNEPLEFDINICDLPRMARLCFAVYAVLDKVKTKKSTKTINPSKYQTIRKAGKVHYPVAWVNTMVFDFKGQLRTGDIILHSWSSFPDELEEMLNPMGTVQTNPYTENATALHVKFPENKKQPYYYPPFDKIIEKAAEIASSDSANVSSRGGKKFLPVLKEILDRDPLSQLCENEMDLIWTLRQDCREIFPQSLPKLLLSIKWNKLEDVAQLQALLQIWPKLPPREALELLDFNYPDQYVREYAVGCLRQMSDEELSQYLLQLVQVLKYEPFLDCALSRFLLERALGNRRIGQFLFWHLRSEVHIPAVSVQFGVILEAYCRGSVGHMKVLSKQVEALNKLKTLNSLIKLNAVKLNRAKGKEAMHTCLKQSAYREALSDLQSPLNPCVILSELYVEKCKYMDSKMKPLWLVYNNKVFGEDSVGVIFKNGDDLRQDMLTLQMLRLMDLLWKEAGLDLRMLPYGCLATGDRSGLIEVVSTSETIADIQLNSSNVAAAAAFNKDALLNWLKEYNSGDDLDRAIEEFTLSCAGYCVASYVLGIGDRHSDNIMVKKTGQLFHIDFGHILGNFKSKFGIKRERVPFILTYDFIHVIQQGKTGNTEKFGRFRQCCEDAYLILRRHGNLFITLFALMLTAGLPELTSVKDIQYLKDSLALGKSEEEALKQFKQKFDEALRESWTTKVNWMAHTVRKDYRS
Chain of PI3Kβ (P27986 whole entry partner, species assumed): as the sequence (P27986 whole entry partner, species assumed) above

On to `Cn1ncc2c(-c3cccc(O)c3)nc(N3CCOCC3)nc21` [Compound A1, 3-(1-methyl-6-morpholin-4-yl-1H-pyrazolo[3,4-d]pyrimidin-4-yl)phenol], for which the IC50 in test [1], in test [2], in test [3] and in test [4] was 0.1 to 10 µM throughout.

Consider `Cn1ncc2c(-c3cccc(CO)c3)nc(N3CCOCC3)nc21` [Compound A33, [3-(1-methyl-6-morpholin-4-yl-1H-pyrazolo[3,4-d]pyrimidin-4-yl)phenyl]methanol], for which the concentration for half-maximal inhibition (IC50) in test [1], in test [2], in test [3] and in test [4] was 0.1 to 10 µM throughout.

Regarding `Cn1ncc2c(-c3ccc4cc[nH]c4c3)nc(N3CCOCC3)nc21` [Compound A65, 4-(1H-indol-6-yl)-1-methyl-6-morpholin-4-yl-1H-pyrazolo-[3,4-d]pyrimidine], the IC50 in test [1] was greater than 10 µM; in test [2] it was 0.1 to 10 µM; in test [3] it was greater than 10 µM; in test [4], greater than 10 µM.

For the molecule `Cn1ncc2c(-c3cccc4[nH]ccc34)nc(N3CCOCC3)nc21` [Compound A97, 4-(1H-indol-4-yl)-1-methyl-6-morpholin-4-yl-1H-pyrazolo[3,4-d]pyrimidine], the IC50 is 0.1 to 10 µM in test [1], greater than 10 µM in test [2], 0.1 to 10 µM in test [3] and 0.1 to 10 µM in test [4].

With `Cn1ncc2c(-c3ccc4[nH]cnc4c3)nc(N3CCOCC3)nc21` [Compound A129, 4-(1H-benzimidazol-5-yl)-1-methyl-6-morpholin-4-yl-1H-pyrazolo[3,4-d]pyrimidine], the IC50 in test [1], in test [2], in test [3] and in test [4] was 0.1 to 10 µM throughout.

Turning to `Cn1ncc2c(-c3cccc4[nH]ncc34)nc(N3CCOCC3)nc21` [Compound A161, 4-(1H-indazol-4-yl)-1-methyl-6-morpholin-4-yl-1H-pyrazolo-[3,4-d]pyrimidine], the IC50 in test [1], in test [2], in test [3] and in test [4] was 0.1 to 10 µM throughout.

Turning to `Cn1ncc2c(-c3ccc(N)nc3)nc(N3CCOCC3)nc21` [Compound A193, 5-(1-methyl-6-morpholin-4-yl-1H-pyrazolo[3,4-d]pyrimidin-4-yl)pyridin-2-ylamine], the concentration for half-maximal inhibition (IC50) in test [1], in test [2], in test [3] and in test [4] was 0.1 to 10 µM each time.

Regarding `Nc1ccc(-c2nc(N3CCOCC3)nc3c2cnn3CC(=O)N2CCCC2)cn1` [Compound A196], the half-maximal inhibitory concentration (IC50) in test [1] is 0.1 to 10 µM; in test [2] it was greater than 10 µM; in test [3], greater than 10 µM; in test [4] it was 0.1 to 10 µM.

With `Cn1ncc2c(-c3cnc(N)nc3)nc(N3CCOCC3)nc21` [Compound A225, 5-(1-methyl-6-morpholin-4-yl-1H-pyrazolo[3,4-d]pyrimidin-4-yl)pyrimidin-2-ylamine], the IC50 in test [1], in test [2], in test [3] and in test [4] was 0.1 to 10 µM in each case.

For `Nc1ncc(-c2nc(N3CCOCC3)nc3c2cnn3CC(=O)N2CCCC2)cn1` [Compound A228], the IC50 in test [1], in test [2], in test [3] and in test [4] was 0.1 to 10 µM throughout.

Turning to `Nc1ncc(-c2nc(N3CCOCC3)nc3c2cnn3CC(=O)N2CCOCC2)cn1` [Compound A229], the half-maximal inhibitory concentration (IC50) in test [1], in test [2], in test [3] and in test [4] was 0.1 to 10 µM each time.

`CN1CCN(C(=O)Cn2ncc3c(-c4cnc(N)nc4)nc(N4CCOCC4)nc32)CC1` [Compound A231]: the 50% inhibitory concentration (IC50) in test [1], in test [2], in test [3] and in test [4] was 0.1 to 10 µM throughout.

For the molecule `O=c1cc(N2CCOCC2)oc2c(-c3ccccc3)cccc12` [LY294002], the IC50 in test [5] is 5 to 10 µM.
